Experimental data reported in patent US20100216758A1, “Pyridone Compounds” (priority 2005, published 2010).
pIC50: −log10 of the molar value.

molecular target: T1, human MCH-1R (Homo sapiens, UniProt Q99705); test: MCH binding inhibition test; conditions: membrane samples from MCH-1R expressing CHO-K1 cells, 50 pM [125I]MCH, 25° C., one hour, pH 7.4; read-out: IC50 (50% inhibition concentration of test compound to the specific [125I]MCH binding)
T1 construct: expressed in transfected cells; host or cells: CHO-K1 (American Type Culture Collection), vector pEF/myc/cyto (Invitrogen)
Description: A human MCH-1R encoding cDNA sequence [FEBS Letters, Vol. 398, 253 (1996); Biochimica et Biophisica Acta, Vol. 1401, 216 (1998)] was cloned to a plasmid vector pEF/myc/cyto (Invitrogen Corporation). The obtained expression vector was transfected to host cells CHO-K1 (American Type Culture Collection) using Lipofectamine Plus Reagent (Life Technology Inc.) to provide MCH-1R expression cells.
Membrane samples prepared from the MCH-1R expression cells were incubated with each test compound and 50 pM of [^125I]MCH (NEN Co.), in an assay buffer (50 mM Tris buffer comprising 10 mM magnesium chloride, 2 mM ethylenediamine tetraacetate, 0.01% bacitracin and 0.2% bovine serum albumin; pH 7.4) at 25° C. for an hour, followed by filtration through a glass filter GF/C (Wattman Co.). After washing the glass filter with 50 mM Tris buffer (pH 7.4) comprising 10 mM magnesium chloride, 2 mM ethylenediamine tetraacetate and 0.04% Tween-20, the radioactive activity on the glass filter was measured. The non-specific binding was measured in the presence of 1 μM human MCH and 50% inhibition concentration (IC50 value) of each test compound to the specific [^125I]MCH binding was determined.

T1 sequence (Q99705 whole entry): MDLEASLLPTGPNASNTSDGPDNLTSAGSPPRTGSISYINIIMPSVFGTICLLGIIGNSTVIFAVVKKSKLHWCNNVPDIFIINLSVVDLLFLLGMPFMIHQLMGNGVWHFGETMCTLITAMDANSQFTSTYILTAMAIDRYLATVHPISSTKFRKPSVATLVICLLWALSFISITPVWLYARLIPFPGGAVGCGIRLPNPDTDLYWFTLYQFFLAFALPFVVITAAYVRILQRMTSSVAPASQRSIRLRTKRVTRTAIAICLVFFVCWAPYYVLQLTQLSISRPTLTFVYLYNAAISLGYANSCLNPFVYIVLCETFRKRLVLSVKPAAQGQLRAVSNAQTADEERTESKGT

SMILES | pIC50
CCN(CC)Cc1ccc(CCn2ccc(OCc3ccc(F)cc3)cc2=O)cc1 [Example 2, 1-(2-{4-[(Diethylamino)methyl]phenyl}ethyl)-4-[(4-fluorobenzyl)oxy]pyridin-2(1H)one] | 8.23
O=c1cc(OCc2ccc(Cl)cc2)ccn1CCc1ccc(CN2C3CCC2CC3)cc1 [Example 41, 1-{2-[4-(7-Azabicyclo[2.2.1]hept-7-ylmethyl)phenyl]ethyl}-4-[(4-chlorobenzyl)oxy]pyridin-2(1H)-one] | 8.52
CCCNCc1ccc(CCn2ccc(OCc3ccc(F)cc3)cc2=O)cc1 [Example 72, 4-[(4-Fluorobenzyl)oxy]-1-(2-{4-[(propylamino)methyl]phenyl}ethyl)pyridin-2(1H)-one] | 8.59

More lines, in order of rising pIC50, values ahead:

pIC50 | SMILES
8.14 | CCN(CC)Cc1ccc(CCn2ccc(OCc3ccc(Cl)cn3)cc2=O)cc1 [Example 14, 4-[(5-Chloropyridin-2-yl)methoxy]-1-(2-{4-[(diethylamino)methyl]phenyl}ethyl)pyridin-2(1H)-one]
8.24 | O=c1cc(OCc2ccc(Cl)cn2)ccn1CCc1ccc(CN2CCCC2)cc1 [Example 26, 4-[(5-Chloropyridin-2-yl)methoxy]-1-(2-[4-(pyrrolidin-1-ylmethyl)phenyl]ethyl}pyridin-2(1H)-one]
